Measured values from the supplement of paper PMC4862054.

Key:
Conditions in all cases: incubation time: 72 h
[1] = system: SK-BR-3; assay: normalised response (% of control), CellTiter-Glo; higher = more viable cells (100 = DMSO, 0 = benzethonium chloride kill control)
Method: (§1)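 DSRT, 72 h incubation, CellTox Green / CellTiter-Glo readout. Signal is normalised to DMSO and benzethonium chloride controls. Value is the normalised response at dose 3.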

[2] = system: HCC1937; assay: as above
Method: as §1

[3] = system: DU-4475; assay: as above
Method: as §1

[4] = system: CAL-148; assay: as above
Method: as §1

[5] = system: HDQ-P1; assay: as above
Method: as §1

[6] = system: BT-549; assay: as above
Method: as §1

[7] = system: BT-474; assay: as above
Method: as §1

[8] = system: HCC1143; assay: as above
Method: as §1

[9] = system: MFM-223; assay: as above
Method: as §1

[10] = system: MDA-MB-231; assay: as above
Method: as §1

[11] = system: MDA-MB-436; assay: as above
Method: as §1

[12] = system: MDA-MB-453; assay: as above
Method: as §1

[13] = system: CAL-120; assay: as above
Method: as §1

[14] = system: CAL-85-1; assay: as above
Method: as §1

[15] = system: Hs578T; assay: as above
Method: as §1

[16] = system: MDA-MB-468; assay: as above
Method: as §1

[17] = system: MCF-10A; assay: as above
Method: as §1

[18] = system: CAL-51; assay: as above
Method: as §1

[19] = system: HCC1599; assay: as above
Method: as §1

[20] = system: DU-4475; assay: normalised response (% of control), CellTox Green; higher = less cell death (100 = DMSO, 0 = benzethonium chloride kill control)
Outline: (§2)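 Compound was dispensed into 384-well plates at 5 concentrations in 10-fold steps spanning a 10,000-fold range specific to that compound. Breast cancer cell lines were added as 20 µl suspension and left for 72 h before CellTox Green fluorescence (485/520 nm) and then CellTiter-Glo luminescence, read after 10 min at room temperature. Each reported value is the normalised signal at one concentration, with 0.1 % DMSO set at 100 and a positive kill control at 0 on each plate.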

[21] = system: CAL-148; assay: as above
Outline: as §2

[22] = system: HDQ-P1; assay: as above
Outline: as §2

[23] = system: BT-549; assay: as above
Outline: as §2

[24] = system: BT-474; assay: as above
Outline: as §2

[25] = system: HCC1143; assay: as above
Outline: as §2

[26] = system: MFM-223; assay: as above
Outline: as §2

[27] = system: MDA-MB-231; assay: as above
Outline: as §2

[28] = system: MDA-MB-436; assay: as above
Outline: as §2

[29] = system: MDA-MB-453; assay: as above
Outline: as §2

[30] = system: CAL-120; assay: as above
Outline: as §2

[31] = system: CAL-85-1; assay: as above
Outline: as §2

[32] = system: MCF-10A; assay: as above
Outline: as §2

[33] = system: CAL-51; assay: as above
Outline: as §2

[34] = system: HCC1599; assay: as above
Outline: as §2

[35] = system: HCC1937; assay: as above
Outline: as §2

[36] = system: Hs578T; assay: as above
Outline: as §2

[37] = system: MDA-MB-468; assay: as above
Outline: as §2

[38] = system: SK-BR-3; assay: normalised response (% of control), CellTiter-Glo; higher = more viable cells (100 = DMSO, 0 = benzethonium chloride kill control); remark: listed apart in the source
Outline: as §2

[39] = system: HCC1937; assay: as above; remark: listed apart in the source
Outline: as §2

[40] = system: DU-4475; assay: as above; remark: listed apart in the source
Outline: as §2

[41] = system: CAL-148; assay: as above; remark: listed apart in the source
Outline: as §2

[42] = system: HDQ-P1; assay: as above; remark: listed apart in the source
Outline: as §2

[43] = system: BT-549; assay: as above; remark: listed apart in the source
Outline: as §2

[44] = system: BT-474; assay: as above; remark: listed apart in the source
Outline: as §2

[45] = system: HCC1143; assay: as above; remark: listed apart in the source
Outline: as §2

[46] = system: MFM-223; assay: as above; remark: listed apart in the source
Outline: as §2

[47] = system: MDA-MB-231; assay: as above; remark: listed apart in the source
Outline: as §2

[48] = system: MDA-MB-436; assay: as above; remark: listed apart in the source
Outline: as §2

[49] = system: MDA-MB-453; assay: as above; remark: listed apart in the source
Outline: as §2

[50] = system: CAL-120; assay: as above; remark: listed apart in the source
Outline: as §2

[51] = system: CAL-85-1; assay: as above; remark: listed apart in the source
Outline: as §2

[52] = system: Hs578T; assay: as above; remark: listed apart in the source
Outline: as §2

[53] = system: MDA-MB-468; assay: as above; remark: listed apart in the source
Outline: as §2

[54] = system: MCF-10A; assay: as above; remark: listed apart in the source
Outline: as §2

[55] = system: CAL-51; assay: as above; remark: listed apart in the source
Outline: as §2

[56] = system: HCC1599; assay: as above; remark: listed apart in the source
Outline: as §2

Compound	normalised response [20] [%]	normalised response [21] [%]	normalised response [22] [%]	normalised response [23] [%]	normalised response [24] [%]	normalised response [25] [%]	normalised response [26] [%]	normalised response [27] [%]	normalised response [28] [%]	normalised response [29] [%]	normalised response [30] [%]	normalised response [31] [%]	normalised response [32] [%]	normalised response [33] [%]	normalised response [34] [%]	normalised response [35] [%]	normalised response [36] [%]	normalised response [37] [%]	normalised response [38] [%]	normalised response [39] [%]	also measured
C[C@]1(O)C[C@@H](c2nc(-c3ccc4ccc(-c5ccccc5)nc4c3)c3c(N)nccn32)C1 [Linsitinib] (100 nM)	96.2	76.6	93.2	102	99.3	73	99.8	83.4	52.9	99.3	97.2	90.8	92.7	95.5	93.8						normalised response [1]: 84.8%; normalised response [2]: 107%; normalised response [3]: 97.8%; normalised response [4]: 90%; normalised response [5]: 99.8%; normalised response [6]: 100%; normalised response [7]: 91.3%; normalised response [8]: 98.1%; normalised response [9]: 91.4%; normalised response [10]: 93.9%; normalised response [11]: 88.9%; normalised response [12]: 90.7%; normalised response [13]: 90.4%; normalised response [14]: 89.7%; normalised response [15]: 106%; normalised response [16]: 85.6%; normalised response [17]: 72.8%; normalised response [18]: 105%; normalised response [19]: 107%
C[C@]1(O)C[C@@H](c2nc(-c3ccc4ccc(-c5ccccc5)nc4c3)c3c(N)nccn32)C1 [Linsitinib] (1000 nM)	94.9	105	87.9	108	91	76.7	96.5	102	73.8	102	94.9	97.3	75	104	94.6	124	93.5	75.2	69.8	98.9	normalised response [40]: 92.5%; normalised response [41]: 101%; normalised response [42]: 76.8%; normalised response [43]: 88.6%; normalised response [44]: 78%; normalised response [45]: 88.7%; normalised response [46]: 94.5%; normalised response [47]: 85.9%; normalised response [48]: 95.5%; normalised response [49]: 83.8%; normalised response [50]: 88%; normalised response [51]: 85.5%; normalised response [52]: 101%; normalised response [53]: 79.6%; normalised response [54]: 48.5%; normalised response [55]: 94%; normalised response [56]: 92%
CC(=O)N(O)CCCCCNC(=O)CCC(=O)N(O)CCCCCNC(=O)CCC(=O)N(O)CCCCCN [Deferoxamine] (1000 nM)	97.5	2.01	106	102	96.8	82.2	70.8	96.7	73.7	100	96.8	110	79.7	91.1	96.7	-39.7	97.3	143	84.2	76.8	normalised response [40]: 85.8%; normalised response [41]: 59.6%; normalised response [42]: 93.6%; normalised response [43]: 72.7%; normalised response [44]: 90.9%; normalised response [45]: 79.5%; normalised response [46]: 89.5%; normalised response [47]: 86.8%; normalised response [48]: 87.4%; normalised response [49]: 84.2%; normalised response [50]: 96.1%; normalised response [51]: 102%; normalised response [52]: 96.8%; normalised response [53]: 63.3%; normalised response [54]: 97.7%; normalised response [55]: 88.7%; normalised response [56]: 98.2%
COc1cc(F)c(F)c(Nc2ccc(I)cc2F)c1NS(=O)(=O)C1(C[C@H](O)CO)CC1 [Refametinib] (1000 nM)	57.4	99.3	82.9	115	99.7	70.5	99.6	39.2	97.5	106	86.8	46.6	92.6	101	95.8	113	109	120	82.4	79.4	normalised response [40]: 0.17%; normalised response [41]: 89.2%; normalised response [42]: 54.5%; normalised response [43]: 95.7%; normalised response [44]: 62.4%; normalised response [45]: 77.2%; normalised response [46]: 75.9%; normalised response [47]: 59.4%; normalised response [48]: 78.4%; normalised response [49]: 96.3%; normalised response [50]: 66.1%; normalised response [51]: 52.2%; normalised response [52]: 80.1%; normalised response [53]: 72.7%; normalised response [54]: 28.3%; normalised response [55]: 99.3%; normalised response [56]: 116%
CC(=O)c1c(C)c2cnc(Nc3ccc(N4CCNCC4)cn3)nc2n(C2CCCC2)c1=O [Palbociclib] (1000 nM)	99	89.8	103	109	95.2	70.3	98.4	109	100	101	102	114	105	126	98.1	102	108	167	75.9	94.8	normalised response [40]: 94.4%; normalised response [41]: 86.2%; normalised response [42]: 105%; normalised response [43]: 102%; normalised response [44]: 78.1%; normalised response [45]: 80.3%; normalised response [46]: 72.6%; normalised response [47]: 84%; normalised response [48]: 96.6%; normalised response [49]: 102%; normalised response [50]: 84.6%; normalised response [51]: 104%; normalised response [52]: 93.3%; normalised response [53]: 86.7%; normalised response [54]: 82.5%; normalised response [55]: 103%; normalised response [56]: 91.6%
